According to patent US9655828B2, “Glucuronolactone derivatives as self-tanning substances” (Merck Patent GmbH, priority 2013, dated 2017):

What was measured:
[1] = Liquid skin model (reaction with L-lysine, L*a*b* values); details: for L* / a* / b*: 1 mmol substance + 1 mmol L-lysine in 100 ml phosphate-buffered water (pH=7)/ethylene glycol 6:94; for L* / a* / b* / L values compared with erythrulose or glucuronolactone: after 24 hours; for hue achieved: conclusion from a values
Description: The mixture is subsequently made up to the mark with a mixture of 6 ml of phosphate-buffered water (pH=7) and 94 ml of ethylene glycol. The reaction is observed with vigorous stirring, and the L*a*b* values are determined after 24 hours.

[2] = Colouring test on merino wool balls; details: 1 mmol substance in 100 ml buffer (pH 7)/ethylene glycol 6:94, RT, 24 h, then washed and dried; compared with untreated sample
Description: In each case, 1 mmol of the substance to be tested are weighed out into a 100 ml conical flask with ground-glass joint:
A merino wool ball with the size of a grape and a magnetic stirrer are then added to each conical flask.
A mixture of 6% by vol. of buffer (ph7) and 94% by vol. of ethylene glycol is then prepared, 100 ml of this mixture are added to each conical flask and stirred at RT for 24 h.
After 24 h, the wool balls are washed firstly with water, then with warm washing-powder solution and again with water and dried.
This colouring result can also be applied to hair, since merino wool, like hair, is built up from proteins (keratins) and the outermost layer is in each case the cuticle.

[3] = test system: histological explants from lower abdomen tissue; test: Ex-vivo study: chromametric measurement of skin explants (ITA); parameters: species or system human; details: 4% substance, 30 μl applied daily for 2 h
Description: 24 histological explants having an average diameter of 10 mm are prepared from the lower abdomen tissue of a person. The pieces of tissue are kept in BEM medium (BIO-EC's Explants Medium) at 37° C. in a humid atmosphere comprising 5% of CO2.
The tissue is divided into 8 batches of 3 explants each: • A negative control (untreated sample, treated only with the vehicle Mygliol)→E • A positive control (4% dihydroxyacetone)→R1 • A positive control (4% erythrulose)→R2 • Glucuronolactone (4%)→P1 • Compound of the formula (Ig) (4%)→P2 • Compound of the formula (Ia) (4%)→P3
30 μl of the substance solutions are applied on 10 consecutive days using a round filter paper and left to act for 2 h. On days 1, 3 and 7, the explants are measured chromametrically.
The colour measurements are carried out using a Minolta CR-300 Chroma-meter, and the L, a and b values are read off correspondingly on the instrument.
In 1931, a test series was carried out by the CIE (Commision Internationale de L'Eclairage), where the “2-degree standard observer” was defined. A colour area is present here which is viewed at a viewing angle of 2 degrees. This viewing angle is used as standard in the chromametric measurement. • Irradiation source D65, corresponding to daylight • Region of the measurement: 3 mm • Parameters used: L*a*b*
The sample is placed on the bearing rail with the epidermis facing downwards. The irradiation is carried out from the underside through the area indicated (3 mm).
In the colorimetric determinations <<L a b>>, the L value determines the contrast of the skin. If the L value drops, the skin appears darker.
ITA is defined as arctang[(L-50)/b]. If the ITA index increases, the skin appears paler.

With COc1ccc(/C=C/C(=O)OC2C(=O)OC3C4OC(C)(C)OC4OC23)cc1 (centres unmarked) [Compound (Ia), 2,2-Dimethyl-5-oxohexahydrofuro[2′,3′:4,5]furo[2,3-d]-1,3-dioxol-6-yl(E)-3-(4-methoxyphenyl)acrylate] the “L*” value [1] was 66.34, the “a*” value [1] was 34.88 and the “b*” value [1] was 105.16. For the same compound, the “L values compared with erythrulose or glucuronolactone” value ([1]; in words) was “lower L values than erythrulose or glucuronolactone”, the hue achieved ([1]; in words) was “shifted more towards red” and the “coloration of wool samples” value [2] was “orange-yellow coloration”. The “Day 1 (ITA value)” value [3] was −6%, the “Day 3 (ITA value)” value [3] was −5% and the “Day 7 (ITA value)” value [3] was −10%.

In the case of CC1(C)OC2OC3C(OC(=O)c4ccccc4)C(=O)OC3C2O1 (centres unmarked) [Compound (Ig)], the “L*” value [1] was 64.09, the “a*” value [1] was 36.87 and the “b*” value [1] was 103.8. The “L values compared with erythrulose or glucuronolactone” value ([1]; in words) was “lower L values than erythrulose or glucuronolactone”, the hue achieved ([1]; in words) was “shifted more towards red” and the “coloration of wool samples” value [2] was “yellow coloration”.

In the case of CC(=O)OC1C(=O)OC2C3OC(C)(C)OC3OC12 (centres unmarked) [Compound (Io), 2,2-Dimethyl-5-oxohexahydrofuro[2′,3′:4,5]furo[2,3-d]-1,3-dioxol-6-yl acetate], the “L*” value [1] was 87.51, the “a*” value [1] was 2.41 and the “b*” value [1] was 92.10. The “L values compared with erythrulose or glucuronolactone” value ([1]; in words) was “lower L values than erythrulose or glucuronolactone” and the “coloration of wool samples” value [2] was “pale-yellow coloration”.

For O=C(CO)CO [DHA, 1,3-dihydroxyacetone], the “L*” value [1] was 34.95, the “a*” value [1] was 24.91 and the “b*” value [1] was 57.45. The “coloration of wool samples” value [2] was “no coloration”, the “Day 1 (ITA value)” value [3] was −3% and the “Day 3 (ITA value)” value [3] was 0%. The “Day 7 (ITA value)” value [3] was −1%.

For O=C(CO)[C@H](O)CO [Erythrulose], the “L*” value [1] was 93.50, the “a*” value [1] was −4.40 and the “b*” value [1] was 32.66. The “Day 1 (ITA value)” value [3] was 4%, the “Day 3 (ITA value)” value [3] was −4% and the “Day 7 (ITA value)” value [3] was 4%.

For O=C[C@H](O)[C@H]1OC(=O)[C@@H](O)[C@H]1O [Glucuronolactone], the “L*” value [1] was 94.30, the “a*” value [1] was −6.94 and the “b*” value [1] was 38.68. For the same compound, the “colour effect compared with erythrulose or glucuronolactone” value ([1]; identical concentration in the test formulation, in words) was “comparable colour effect to erythrulose”, the “coloration of wool samples” value [2] was “very pale-yellow coloration” and the “Day 1 (ITA value)” value [3] was 10%. For the same compound, the “Day 3 (ITA value)” value [3] was 4% and the “Day 7 (ITA value)” value [3] was −2%.
